The source of these data is patent publication US20100105602A1, “TREATMENT OF INT[…] INFECTIONS” (Novozymes A/S, priority 2008, published 2010).

Series [1] concerns Staphylococcus aureus ATCC25923 (MSSA) in THP-1 macrophages. Description: In vitro intracellular activity in infected THP-1 macrophages, S. aureus ATCC25923. It is filed as cell-based. The following applies: for Emax (95% CI): decrease in log CFU after 24 hours compared to original inoculum. Here is the method: (§1) For studies of Plectasin, two strains of S. aureus were applied: ATCC25923 (MSSA) and E33235 (MSSA, axil, clinical isolate from Statens Serum Institute, Denmark).
(§2) For studies of Defensin2114, […] of S. aureus were used: ATCC25923 (MSSA), MRSA (clinical septicaemia isolate, Statens Serum Institute, ref. no. 1-15479) and VRSA2 (Pennsylvania HIP 11983).
(§3) Overnight culture of bacteria was opsonized for 45 min with human serum (AB positive, Lonza, USA). Afterwards the bacteria were tittered using a spectrophotometer (CECIL 2040) and THP-1 macrophages were counted and then infected with 4 bacteria/cell. THP-1 cells were cultured in RPMI 1640 medium supplemented with fetal calf serum.
(§4) The bacteria were incubated with cells for 1 hour at 37° C., CO2 5%, to allow phagocytosis.
(§5) After 1 hour of incubation the infected cells were incubated 45 min with Gentamicin (50 micrograms/mL) to eradicate remaining non-phagocytosed bacteria. To remove Gentamicin after incubation cells were washed 3× with PBS. After the third wash, cells were re-suspended in RPMI 1640 medium (+10% fetal calf serum) and Plectasin or Defensin2114 was added at desired concentrations (0-128×MIC). One sample was incubated with Gentamicin at 1×MIC for control of intracellular growth. In studies of Defensin2114 the activity was compared to that of vancomycin and daptomycin.
(§6) Cells were incubated in 6-well plates for 24 hours at 37° C., CO2 5%.
(§7) After incubation cells were washed in PBS and subsequently re-suspended in sterile water to release intracellular bacteria.
(§8) Samples were diluted regarding to the expected amount of CFU and spread on TSA plates and incubated at 35° C. overnight. After 24 hours incubation the CFU were counted.
(§9) The samples may be stored at −20° C. for up to one week. Samples were sonicated and proteins titered as described by Lowry et al. hereby obtaining results as CFU/mg protein. All samples were tested in triplicates.
(§10) In vitro intracellular dose-response studies: For analysis of dose-effect relationships, the Hill-equation (slope=1) was employed to calculate the maximal relative efficacy, Emax, static concentration (Cstatic) and goodness-of-fit. These parameters were determined using non-linear regression.

The subject of series [2] is Staphylococcus aureus VRSA2 (Pennsylvania HIP 11983) in THP-1 macrophages. Kind of series: In vitro intracellular activity in infected THP-1 macrophages, VRSA2. It is filed as cell-based. To be noted: for Cstatic / Emax (95% CI): VRSA2, THP-1 macrophages, 24 hours. Here is the method: as §2, §3, §4, §5, §6, §7, §8, §9, §10
In series [3] the test system is Staphylococcus aureus MRSA (1-15479) in THP-1 macrophages. Description: In vitro intracellular activity in infected THP-1 macrophages, MRSA (1-15479). It is filed as cell-based. The following applies: for Cstatic / Emax (95% CI): MRSA (1-15479), THP-1 macrophages, 24 hours. Here is the method:
as §2, §3, §4, §5, §6, §7, §8, §9, §10

Series [4] deals with Staphylococcus aureus E33235 (MSSA) in THP-1 macrophages. Description: In vitro intracellular activity in infected THP-1 macrophages, S. aureus E33235. In kind it is cell-based. To be noted: S. aureus E33235, THP-1 macrophages, 24 hours. The method, then:
as §1, §3, §4
After 1 hour of incubation the infected cells were incubated 45 min with Gentamicin (50 micrograms/mL) to eradicate remaining non-phagocytosed bacteria. To remove Gentamicin after incubation cells were washed 3× with PBS. […]
Samples were diluted regarding to the expected amount of CFU and spread on TSA plates and incubated at 35° C. overnight. After 24 hours incubation the CFU were counted. […]
as §10

Series [5] is described as follows: Kinetics study, serum, and PK/PD parameters of dosing regimens. In kind it is in vivo, mice. Details: AUC(free) / Peak / Cpeak: unit not given here. To be noted: for AUC(free): free serum concentrations. Here is the method: Animals were dosed from 4.25-34 mg/kg
The serum was separated and stored at −20° C. until analysis by LCMSMS using internal and external standards. Serum binding was calculated to 90%.
Pharmacokinetic parameters were determined through intrapolation from free serum concentrations using GraphPad Prism.

In series [6] the test system is Staphylococcus aureus E33235. Description: Mouse peritonitis model, intra- and extracellular effect. In kind it is in vivo, mice. The method, then: This Example presents an in vivo study of the efficacy of Plectasin against intracellular Staphylococcus aureus E33235 in an animal model of infection (peritonitis), including assessment of both intra- and extracellular effect. Staphylococcus aureus E33235 is a clinically isolated strain obtainable from Statens Serum Institut, Denmark.
Staphylococcus aureus E33235 was spread on 5% blood plates and incubated overnight at 37° C. at ambient air. A 10% w/v Mucin solution was prepared in NaCl. The solution was sterilized and pH adjusted to pH 7.0.
Colonies of Staphylococcus aureus were suspended in saline to approx. 10^8 CFU/mL (OD=0.13). A 1:1 dilution with the 10% Mucin stock solution was prepared making a solution of 5% Mucin and 5×10^7 CFU/mL.
A solution of 50 mg/mL lysostaphin was prepared in HBSS (Hanks Balanced Salt Solution).
Two hours before treatment (T=0) the mice were inoculated i.p. with 0.5 mL Staphylococcus aureus suspension (with 5% Mucin).
The injected dose volume was 0.6 or 0.3 mL/animal. The first dose was injected two hours after inoculation (T=2).
At T=2 and T=6 hours control animals were sacrificed and peritoneal wash performed. 24 hours after first treatment, the remaining treated animals were sacrificed. Peritoneal wash was performed after sacrifice of animals by cervical dislocation.
Negative control (cell free): Inoculum at 10^8 CFU/mL of S. aureus E 33235 (OD=0.13) in saline was prepared just before the last separation assay of the day. The negative control was handled exactly as the test samples. Microscopy and cell-count of the negative control are not shown. Each sample was handled as described in Table 6.
CFU counts from peritoneal fluid from treated animals were compared to PK/PD parameters to assess the correlation between intra- and extracellular effect of Plectasin to Cpeak, T>MIC and AUC/MIC.
Correlation (Hills) between the most predictive PK/PD-parameter. Effect was determined as the decrease in CFU in the peritoneal fluid 24 hours after the first treatment. Parameters were estimated by multiple regression analysis.

[7] abbreviates: S. aureus ATCC25923, THP-1 macrophages, 24 hours, no apparent growth.
[8] abbreviates: S. aureus ATCC25923, THP-1 macrophages.
Where [9] appears, read: S. aureus ATCC25923, THP-1 macrophages, 24 hours, Table 1.
The mark [10] stands for this setting: b.i.d. treatment with 34 mg/kg, peritoneal fluid, 24 hours after first treatment.

As to `CCCCCCCCCC(=O)N[C@@H](Cc1c[nH]c2ccccc12)C(=O)N[C@H](CC(N)=O)C(=O)N[C@@H](CC(=O)O)C(=O)N[C@@H]1C(=O)NCC(=O)N[C@@H](CCCN)C(=O)N[C@@H](CC(=O)O)C(=O)N[C@H](C)C(=O)N[C@@H](CC(=O)O)C(=O)NCC(=O)N[C@H](CO)C(=O)N[C@@H]([C@H](C)CC(=O)O)C(=O)N[C@@H](CC(=O)c2ccccc2N)C(=O)O[C@@H]1C` [Daptomycin, reference compound], the Cstatic in series [1] (setting [7]) was 0.6 ×MIC; in series [2], 1.3 ×MIC; in series [3], 1.8 ×MIC. Moreover, the figures for the “Emax (95% CI)” value in series [1] (setting [8]), in series [2] and in series [3] were −1.00 log CFU, −0.29 log CFU and −0.85 log CFU, respectively.

On to `CC[C@H](C)[C@@H]1NC(=O)[C@H](CO)NC(=O)[C@H](CCCCN)NC(=O)[C@@H]2CSSC[C@@H](C(=O)N[C@@H](Cc3ccc(O)cc3)C(=O)O)NC(=O)[C@H](CCCCN)NC(=O)[C@@H]3CSSC[C@H](NC(=O)[C@H](CCC(N)=O)NC(=O)[C@H](CCSC)NC(=O)[C@H](CC(=O)O)NC(=O)[C@H](CC(=O)O)NC(=O)[C@H](CCC(=O)O)NC(=O)[C@H](CC(=O)O)NC(=O)[C@H](Cc4c[nH]c5ccccc45)NC(=O)[C@@H]4CCCN4C(=O)CNC(=O)[C@H](CC(N)=O)NC(=O)[C@@H](NC(=O)CNC(=O)[C@H](Cc4ccccc4)NC(=O)CN)CSSC[C@H](NC(=O)[C@H](Cc4ccc(O)cc4)NC(=O)CNC(=O)CNC(=O)[C@H](CCCCN)NC(=O)[C@H](Cc4ccc(O)cc4)NC(=O)CNC(=O)[C@H](CCCCN)NC1=O)C(=O)N[C@@H](C)C(=O)N[C@@H](CCCCN)C(=O)NCC(=O)NCC(=O)N[C@@H](Cc1ccccc1)C(=O)N[C@@H](C(C)C)C(=O)N3)C(=O)N[C@@H](Cc1c[nH]cn1)C(=O)N[C@@H](CC(N)=O)C(=O)N[C@@H](Cc1c[nH]cn1)C(=O)N2` [Plectasin], for which the Cstatic in series [1] (setting [9]) and in series [4] was 0.6 ×MIC each time. Further, the “Emax (CI)” value in series [1] (setting [9]) is listed as −1.35 log CFU; in series [4], −0.97 log CFU. Besides, the Peak worked out at 1.61 in series [5] (dose 4.25 mg/kg), 2.32 in series [5] (dose 8.5 mg/kg), 4.95 in series [5] (dose 17 mg/kg) and 5.99 in series [5] (dose 34 mg/kg). Further, the “AUC(free)” value was found to be 1.901 in series [5] (dose 4.25 mg/kg), 3.955 in series [5] (dose 8.5 mg/kg), 8 in series [5] (dose 17 mg/kg) and 13.25 in series [5] (dose 34 mg/kg). Besides, the fraction unbound in series [5] (mouse, serum, LCMSMS, read-out: Serum binding (converted)) was 0.1. Besides, the Cpeak in series [5] (regimen 1: 34 mg/kg, 1 dose in 24 hours) was 5.99; in series [5] (regimen 2: 17 mg/kg, 1 dose in 24 hours), 4.95; in series [5] (regimen 3: 8.5 mg/kg, 1 dose in 24 hours), 2.32; in series [5] (regimen 4: 4.25 mg/kg, 1 dose in 24 hours), 1.61; in series [5] (regimen 5: 17 mg/kg, 2 doses in 24 hours), 5.99; in series [5] (regimen 6: 8.5 mg/kg, 2 doses in 24 hours), 2.32. The Cpeak in series [5] (regimen 7: 34 mg/kg, 3 doses in 24 hours) is reported as 5.99; in series [5] (regimen 8: 4.25 mg/kg, 3 doses in 24 hours), 1.61; in series [5] (regimen 9: 8.5 mg/kg, 4 doses in 24 hours), 2.32; in series [5] (regimen 10: 8.5 mg/kg, 6 doses in 24 hours), 2.32. Further, the “Max Δ log Decrease in CFU Extracellularly” value in series [6] (setting [10]) is −2.55 (SD: 0.150) Δ log. In series [6] (setting [10]), the “Max Δ log Decrease in CFU Intracellularly” value is on record as −1.25 (SD: 0.058) Δ log. Moreover, the “effect in the mouse peritonitis model” value in series [6] (s.c. treatment, S. aureus E33235 i.p.) was “showed both intra- and extracellular effect”.

As for “Defensin2114: defensin polypeptide shown as SEQ ID NO: 1; synthetic defensin derived from Plectasin (GFGCNGPWNEDDLRCHNHCKSIKGYKGGYCAKGGFVCKCY)”, the “Emax comparison, one-way ANOVA (Tukeys test)” value was “significantly lower Emax value than both daptomycin and vancomycin” in series [1] (ATCC25923); “No difference in Emax value between Defensin2114 and daptomycin” in series [2] (VRSA); “significantly lower Emax value than vancomycin” in series [3] (MRSA, P<0.01). In addition, the Cstatic in series [1] (setting [7]) came out at 0.8 ×MIC; in series [2], 2.3 ×MIC; in series [3], 1.1 ×MIC. The figures for the “Emax (95% CI)” value in series [1] (setting [8]), in series [2] and in series [3] were −1.51 log CFU, −0.22 log CFU and −0.93 log CFU, respectively.

`CN[C@H](CC(C)C)C(=O)N[C@H]1C(=O)N[C@@H](CC(N)=O)C(=O)N[C@H]2C(=O)N[C@H]3C(=O)N[C@H](C(=O)N[C@H](C(=O)O)c4cc(O)cc(O)c4-c4cc3ccc4O)[C@H](O)c3ccc(c(Cl)c3)Oc3cc2cc(c3O[C@@H]2O[C@H](CO)[C@@H](O)[C@H](O)[C@H]2O[C@H]2C[C@](C)(N)[C@H](O)[C@H](C)O2)Oc2ccc(cc2Cl)[C@H]1O` [Vancomycin, reference compound]: the results for the Cstatic in series [1] (setting [7]) and in series [3] were 2.9 ×MIC and 6.2 ×MIC, respectively. Further, the “Emax (95% CI)” value is on record as −0.64 log CFU in series [1] (setting [8]) and −0.66 log CFU in series [3].
